Experiments:
Type in all cases: cell-based
[1] = target: hLPAR1 (human lysophosphatidic acid receptor 1) (Homo sapiens, UniProt Q92633); test: FLIPR assay of intracellular calcium increase induced by activation of hLPAR1 expressed in CHO-K1 cells; conditions: CHO-K1 cells expressing hLPAR1, agonist oleoyl-L-α-lysophosphatidic acid 1 μM; read-out: LPAR1 IC50
Method in brief: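 CHO-K1 cells expressing hLPAR1 were loaded with Fluo-4 AM for 1.0 h at 37° C, then preincubated 30 min at room temperature with compound. Oleoyl-LPA was added at 1 μM final, and calcium fluorescence was recorded by FLIPR for 2 min at 1-s intervals to assess antagonism.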

[2] = tested on: A2058 (human melanoma cells); test: A2058 cell scratch (migration) assay with LPA; conditions: 10 μM LPA, scratch area at 24 h
[3] = In vitro cytotoxicity assay in HepG2 cells, CCK-8 method; conditions: human
Protocol: In vitro cytotoxicity assay for the compounds disclosed herein was performed in HepG2 cells using the CCK-8 method. HepG2 cells (Beina Bio) in the logarithmic growth phase were collected, the concentration of cell suspension was adjusted, and then the cells were plated on a 96-well cell culture plate at 50,000 cells/well. The cells were then incubated overnight in a cell incubator (5% CO2, 37° C.), and after 80-90% cell confluence was achieved, test compounds or vehicle (DMSO) at various concentration gradients were added after medium change. The resulting mixture was incubated in the cell incubator (5% CO2, 37° C.) for 48 h. After the treatment, the medium in the plate was discarded. The plate was washed twice with PBS, added with CCK-8 working solution (Beyotime) at 100 μL per well, and then incubated at 37° C. for 1.5 h away from the light. Absorbance at OD450 nm was measured for each well on a microplate reader, and CC50 value of each compound was analyzed and calculated.

Chain of hLPAR1 (human lysophosphatidic acid receptor 1) (Q92633 whole entry): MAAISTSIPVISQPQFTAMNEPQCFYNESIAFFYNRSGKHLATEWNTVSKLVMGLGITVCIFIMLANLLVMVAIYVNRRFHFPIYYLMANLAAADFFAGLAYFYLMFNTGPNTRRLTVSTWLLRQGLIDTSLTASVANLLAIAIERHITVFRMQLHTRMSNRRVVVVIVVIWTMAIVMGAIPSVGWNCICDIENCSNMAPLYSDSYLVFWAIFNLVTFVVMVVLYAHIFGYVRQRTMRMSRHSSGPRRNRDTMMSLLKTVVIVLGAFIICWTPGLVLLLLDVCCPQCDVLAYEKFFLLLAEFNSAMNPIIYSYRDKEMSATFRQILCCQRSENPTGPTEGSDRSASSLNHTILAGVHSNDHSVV

Structure (SMILES)	IC50 [1] [µM]	Cell migration inhibition rate (%) [2]	CC50 at 48 h [3] [µM]
Cc1cnn(-c2ccc(O[C@H]3CCC[C@H](C(=O)O)C3)cc2)c1COC(=O)N(C)C1CCCC1 (racemic) [Compound 30, (+/−)-(1S,3S)-3-(4-(5-(((cyclopentyl(methyl)carbamoyl)oxy)methyl)-4-methyl-1H-pyrazol-1-yl)phenoxy)cyclohexanoic Acid]	< 0.05	B (B: 30-50%)	> 200
Cc1nc(-c2coc(C)c2COC(=O)N(C)C2CCCC2)ccc1O[C@H]1CCC[C@H](C(=O)O)C1 (racemic) [Compound 42]	< 0.05	A (A: 50-70%)	> 200
CN(C(=O)OCc1c(-c2ccc(O[C@H]3CCC[C@H](C(=O)O)C3)c(F)c2)ncn1C)C1CCCC1 (racemic) [Compound 34, (+/−)-(1S,3S)-3-(4-(5-(((cyclopentyl(methyl)carbamoyl)oxy)methyl)-1-methyl-1H-imidazol-4-yl)-2-fluorophenoxy)cyclohexane-1-carboxylic Acid]	0.05 to 0.3	B (B: 30-50%)	> 200
Cc1nnc(-c2ccc(O[C@H]3CCC[C@H](C(=O)O)C3)c(C)n2)cc1COC(=O)N(C)C1CCCC1 (racemic) [Compound 49]	< 0.05	B (B: 30-50%)	> 200
Cc1nc(COC(=O)N(C)C2CCCC2)c(-c2ccc(O[C@H]3CCC[C@H](C(=O)O)C3)cc2)s1 (racemic) [Compound 10, (+/−)-(1S,3S)-3-(4-(4-(((cyclopentyl(methyl)carbamoyl)oxy)methyl)-2-methylthiazol-5-yl)phenoxy)cyclohexane-1-carboxylic Acid]	0.3 to 10	C (C: 0-30%)	> 200
CN(Cc1ccccc1)C(=O)OCc1nc2c(O[C@H]3CCC[C@H](C(=O)O)C3)cccc2s1 (racemic) [Compound 23, (+/−)-(1S,3S)-3-((2-(((benzyl(methyl)carbamoyl)oxy)methyl)benzo[d]thiazole-4-yl)oxy)cyclohexane-1-carboxylic Acid]	0.3 to 10	C (C: 0-30%)	> 200
Cc1nc(-c2ncoc2COC(=O)N(C)C2CCCC2)ccc1O[C@H]1CCC[C@H](C(=O)O)C1 (racemic) [Compound 26]	0.3 to 10	C (C: 0-30%)	> 200
Cc1nc(-c2ncn(C)c2COC(=O)N(C)C2CCCC2)ccc1O[C@H]1CCC[C@H](C(=O)O)C1 (racemic) [Compound 17, (+/−)-(1S,3S)-3-((6-(5-(((cyclopentyl(methyl)carbamoyl)oxy)methyl)-1-methyl-1H-imidazol-4-yl)-2-methylpyridin-3-yl)oxy)cyclohexane-1-carboxylic Acid]	0.05 to 0.3	C (C: 0-30%)	> 200
Cc1noc(-c2ccc(O[C@H]3CCC[C@H](C(=O)O)C3)c(C(F)(F)F)n2)c1COC(=O)N(C)C1CCCC1 [Compound 37]	< 0.05	A (A: 50-70%)	> 200
Cc1nc(-c2c(Cl)nn(C)c2COC(=O)N(C)C2CCCC2)ccc1O[C@H]1CCC[C@H](C(=O)O)C1 (racemic) [Compound 56, (+/−)-(1S,3S)-3-((6-(3-chloro-5-(((cyclopentyl(methyl)carbamoyl)oxy)methyl)-1-methyl-1H-pyrazol-4-yl)-2-methylpyridin-3-yl)oxy)cyclohexane-1-carboxylic Acid]	< 0.05	A (A: 50-70%)	> 200

Source: patent US12377083B2 (WUHAN LL SCIENCE AND TECHNOLOGY DEVELOPMENT CO., LTD., priority 2019, dated 2025)
